Laboratory results: patent US10662189B2, “PDE4 inhibitor” (SHIJIAZHUANG SAGACITY NEW DRUG DEVELOPMENT CO., LTD., priority 2016, dated 2020)

How the values were obtained:
[1] = tested on: LPS-induced TNFα from the peripheral monocytes of human; test: Inhibitory effect against LPS-induced TNFα in hPBMC in vitro (ELISA); format: cell-based; conditions: Monocyte, TNFα in supernatant, 24 hours
Procedure: Inhibitory activity of the compounds against the LPS-induced TNFα from the peripheral monocytes of human.
1. Whole blood in normal human was collected and EDTA-K2 was used as anticoagulant.
2. PBMC was isolated by Ficoll density gradient centrifugation. The concentration of the cells was adjusted to 2×10^6/mL.
3. 2×10^5 of cells were seed in per well of the 96-well U-bottom plate, followed by the addition of 200 μL/well of LPS with 1 ng/mL and 200 μL/per well of the compound with different concentration: […], 100 pM and 10 pM, with two duplicates of each concentration.
4. The reaction was incubated for 24 hours and the supernatant was collected.
5. ELISA was used to detect the level of TNFα in the supernatant and Graphpad Prism software was used to plot the inhibition curve and calculate the value of IC50.

[2] = tested on: collagen-induced arthritis in mice; test: In vivo CIA model (collagen-induced mouse arthritis); design: species or system DBA/1 mice; conditions: for total pathological score (two hind limbs, HE staining): Mean±SEM
Source text: The collagen-induced mouse arthritis model is an animal model for evaluating the therapeutic effect of drug treatment for psoriatic arthritis, of which pathogenesis and symptoms are obviously related to psoriatic arthritis. The model activated the reactivity of B cells and T cells to collagen by the injection of type II collagen. The activated B cells and T cells were attracted to the joints to cause the inflammation, thereby triggering a series of symptoms related to human psoriatic arthritis, such as redness and swelling of the joints, articular cartilage, joint capsule damage and other symptoms. Collagen-induced mouse arthritis is often used to evaluate the therapeutic effect during preclinical evaluation of candidate compounds for the medication for treating psoriatic arthritis.
The purpose of the experiment was to examine the therapeutic effect of the compound WX063 of embodiment 63 on collagen-induced arthritis in mice, thereby providing the preclinical pharmacodynamics information for subsequent clinical studies.
Mice were randomly divided into different treatment groups. The first immunization day is recorded as Day 0, and the following days were recorded in order.
After the DBA/1 mice were anesthetized with isoflurane, the prepared collagen emulsion was subcutaneously injected into the tail.
On Day 23, 100 μL of LPS solution was administered intraperitoneally.
On day 27, as the mean clinical score reached about 1 point, 60 mice with moderate disease were selected and re-randomized according to body weight and score, with 10 mice per group.
Dexamethasone as a positive control drug was administered at a dose of 0.3 mg/kg, which was common in the CIA model. […] It was administered once a day for a total of 11 days. The volume of the intragastric administration was 10 mL/kg.
Clinical observation: From Day 7 before immunization to Day 23 after immunization, the basic health status and the body weight changes of the DBA/1 mice were observed daily (recorded once a week). After Day 23, the health status, the arthritis incidence and the body weight changes of the mice were observed daily (recorded at least three times a week) until the end of the experiment.
Clinical score: After LPS injection, the arthritis incidence of mice was observed daily. As the clinical symptoms of arthritis occurred, the degree of disease was scored according to the standards of 0-4 (redness, joint deformation) at least three times a week, wherein the highest score for each limb was 4 points, and the highest score for each animal was 16 points. […].
Pathology: On day 38, the mice were euthanized. The hind limbs of the mice were taken, soaked in the 10% formalin solution, decalcified with formic acid solution, embedded in paraffin, sectioned, and stained with hematoxylin-eosin and photographed by microscopy. The degree of joint damage was evaluated from four aspects: inflammatory cell infiltration, formation of […], cartilage damage and bone resorption, and scored according to the standards of 0-4.
The experimental data were expressed as mean value±standard error of mean (Mean±SEM). The body weight and the clinical scores were analyzed by double factor variance (two-way ANOVA). Pathological scores and AUC were tested by T test. p<0.05 was considered as significant difference.

Recombinant human PDE4B = Recombinant human PDE4B (Homo sapiens (Human), UniProt Q07343); test: Inhibitory activity against PDE 4B in vitro (fluorescence polarization, Transcreener AMP2/GMP2); format: biochemical; conditions: 1 μM cAMP
Recombinant human PDE4B, sequence (Q07343 305-736 limits assumed): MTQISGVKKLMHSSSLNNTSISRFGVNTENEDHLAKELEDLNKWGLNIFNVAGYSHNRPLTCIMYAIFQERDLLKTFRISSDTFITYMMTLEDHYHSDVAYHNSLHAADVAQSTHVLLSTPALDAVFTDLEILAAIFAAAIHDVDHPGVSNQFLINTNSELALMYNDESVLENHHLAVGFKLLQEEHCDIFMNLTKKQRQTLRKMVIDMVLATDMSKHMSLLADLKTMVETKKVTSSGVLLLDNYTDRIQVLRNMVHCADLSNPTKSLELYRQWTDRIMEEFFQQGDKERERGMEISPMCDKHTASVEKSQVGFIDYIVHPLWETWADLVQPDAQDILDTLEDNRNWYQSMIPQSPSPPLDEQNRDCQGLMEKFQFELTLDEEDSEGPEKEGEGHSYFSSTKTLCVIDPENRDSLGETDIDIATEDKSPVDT
Procedure: Inhibitory activity of the compounds against PDE 4B
The enzyme activity was indicated by measuring the AMP/GMP expression and tracing AMP/GMP antibody binding based on fluorescence polarization in the biological assay.
10 mM Tris-HCl (pH 7.5), 5 mM MgCl2, 0.01% Brij 35, 1 mM DTT and 1% DMSO.
Recombinant human PDE4B (Gen accession number: NM_002600; amino acid 305 end) was expressed by baculovirus in Sf9 insect cells using an N-terminal GST tag. MW=78 kDa.
Transcreener® AMP2/GMP2 antibody and AMP2/GMP2 AlexaFluor633 tracer
i) Recombinant human PDE4B and the enzyme substrate (1 μM cAMP) were dissolved in the newly-prepared buffer solution, respectively.
ii) The PDE4B buffer solution defined as above was transferred into the reaction wells.
iii) The compound which was dissolved in 100% DMSO was added to the reaction wells of the PDE4B buffer solution by ultrasonic oscillator (echo 550; nanoliter range) and incubated at room temperature for 10 minutes.
iv) The enzymatic buffer solution was then added to the reaction wells defined as above to initiate the reaction.
v) The reaction was incubated at room temperature for 1 hour.
vi) The reaction was terminated by adding detecting mixture (Transcreener® AMP2/GMP2 antibody and AMP2/GMP2 AlexaFluor633 tracer) and incubated for 90 minutes with slowly mixing. The measurement range of fluorescence polarization is Ex/Em=620/688.
The fluorescence polarization signal was converted into nM according to the AMP/GMP standard curve and the percent enzyme activity relative to DMSO calculated by Excel. GraphPad Prism was used to plot the curves (Drawing Medicine Icon).

SMILES	IC50 [1]	IC50 (Recombinant human PDE4B)	further results
CCOc1cc([C@@H](CS(C)(=O)=O)n2c(=O)[nH]c3c(C)c(-c4ccccc4F)cnc32)ccc1OC [WX063]	0.56 nM	0.685 nM	percentage inhibition of clinical score AUC relative to the vehicle control group ([2]; 0.3 mg/kg): 43.9%; mean clinical score ([2]; 0.3 mg/kg intragastric once a day, Day 37): 3.6 points; percentage inhibition of clinical score AUC relative to the vehicle control group ([2]; 1 mg/kg): 39.4%; mean clinical score ([2]; 1 mg/kg intragastric once a day, Day 37): 4.3 points; total pathological score (two hind limbs, HE staining) ([2]; 1 mg/kg): 14.00±2.43; percentage inhibition of clinical score AUC relative to the vehicle control group ([2]; 3 mg/kg): 51.7%; therapeutic effect (clinical score and arthritis pathology score) versus Apremilast 5 mg/kg (in words) ([2]; 3 mg/kg): better than the one of Apremilast; mean clinical score ([2]; 3 mg/kg intragastric once a day, Day 37): 3.5 points; total pathological score (two hind limbs, HE staining) ([2]; 3 mg/kg): 9.20±1.83; treatment of collagen-induced arthritis and pathological changes of arthritis (in words) ([2]; doses of 0.3, 1 and 3 mg/kg): significant improvement
CCOc1cc([C@@H](CS(C)(=O)=O)n2c(=O)n(C)c3cc(-c4ccccc4F)cnc32)ccc1OC [WX057]	3.4 nM	1.25 nM	
C[C@@H]1C[C@H]2[C@@H]3CCC4=CC(=O)C=C[C@]4(C)[C@@]3(F)[C@@H](O)C[C@]2(C)[C@@]1(O)C(=O)CO [Dexamethasone, reference compound]			percentage inhibition of clinical score AUC relative to the vehicle control group ([2]; 0.3 mg/kg): 96.4%; clinical score ([2]; 0.3 mg/kg intragastric once a day, Day 30 and maintained to the end of the trial): 0 points
CCOc1cc([C@@H](CS(C)(=O)=O)n2c(=O)[nH]c3cc(CO)cnc32)ccc1OC [WX023]		68.1 nM	
CCOc1cc([C@@H](CS(C)(=O)=O)n2c(=O)n(C)c3cc(OC)cnc32)ccc1OC [WX041]		16.4 nM	
CCOc1cc([C@@H](CS(C)(=O)=O)n2c(=O)n(Cc3nccc(C)n3)c3cc(Br)cnc32)ccc1OC [WX054]		6.9 nM	
CCOc1cc([C@@H](CS(C)(=O)=O)N2C(=O)c3cccc(NC(C)=O)c3C2=O)ccc1OC [Apremilast, reference compound]			mean clinical score ([2]; 5 mg/kg intragastric once a day, Day 37): 4.2 points; mean clinical score lower compared with the vehicle control group ([2]; 5 mg/kg, Day 37): 3.7 points; total pathological score (two hind limbs, HE staining) ([2]; 5 mg/kg): 13.90±1.89

More lines, main results first:

IC50 [1]	IC50 (Recombinant human PDE4B)	SMILES	further results
8.8 nM	1.87 nM	CCOc1cc([C@@H](CS(C)(=O)=O)n2c(=O)[nH]c3c(-c4ccccc4F)ccnc32)ccc1OC [WX065]	
3.8 nM	2.48 nM	CCOc1cc([C@@H](CS(C)(=O)=O)n2c(=O)[nH]c3c(-c4ccccc4)ccnc32)ccc1OC [WX066]	
6.4 nM	18.5 nM	CCOc1cc([C@@H](CS(C)(=O)=O)n2c(=O)[nH]c3c(-c4cnn(C)c4)ccnc32)ccc1OC [WX067]	
	47.8 nM	CCOc1cc(C(CS(C)(=O)=O)N2C(=O)Cc3cc(Br)cnc32)ccc1OC (stereo not drawn) [WX069]	
	24.6 nM	COc1ccc(C(CS(C)(=O)=O)n2c(=O)[nH]c3c(-c4ccccc4F)ccnc32)cc1OC (single isomer, unassigned) [WX072]	
